Measurements reported in patent publication US11976083B2, “Inhibitors of peptidylarginine deiminases” (Gilead Sciences, Inc., priority 2020, dated 2024).
pIC50: −log10 of the molar value.

Target: T1, human PAD4 (Homo sapiens, UniProt Q9UM07)
T1 construct: human PAD4 (NM_012387), A2-P663, was PCR amplified; His-SUMO (N, cleaved yes); made in house; host or cells: E. coli BL21(DE3)
Assay: In vitro PAD4 BAEE biochemical assay
Details: BAEE substrate 3 mM, 5 nM PAD4, 2 mM calcium chloride; geometric mean of multiple experiments
Method in brief: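 Ammonia produced by BAEE deimination (3 mM substrate, 2 h, 25 °C) was read as fluorescent isoindole after o-phthalaldehyde/DTT derivatization, ex 405 nm/em 535 nm. Human PAD4 at 5 nM final, 2 mM calcium, pH 7.6 MOPS; compound preincubated 30 min. IC50s, normalized to BB-Cl-Amidine and DMSO controls, were geometric-mean averaged.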

T1 sequence (Q9UM07 2-663): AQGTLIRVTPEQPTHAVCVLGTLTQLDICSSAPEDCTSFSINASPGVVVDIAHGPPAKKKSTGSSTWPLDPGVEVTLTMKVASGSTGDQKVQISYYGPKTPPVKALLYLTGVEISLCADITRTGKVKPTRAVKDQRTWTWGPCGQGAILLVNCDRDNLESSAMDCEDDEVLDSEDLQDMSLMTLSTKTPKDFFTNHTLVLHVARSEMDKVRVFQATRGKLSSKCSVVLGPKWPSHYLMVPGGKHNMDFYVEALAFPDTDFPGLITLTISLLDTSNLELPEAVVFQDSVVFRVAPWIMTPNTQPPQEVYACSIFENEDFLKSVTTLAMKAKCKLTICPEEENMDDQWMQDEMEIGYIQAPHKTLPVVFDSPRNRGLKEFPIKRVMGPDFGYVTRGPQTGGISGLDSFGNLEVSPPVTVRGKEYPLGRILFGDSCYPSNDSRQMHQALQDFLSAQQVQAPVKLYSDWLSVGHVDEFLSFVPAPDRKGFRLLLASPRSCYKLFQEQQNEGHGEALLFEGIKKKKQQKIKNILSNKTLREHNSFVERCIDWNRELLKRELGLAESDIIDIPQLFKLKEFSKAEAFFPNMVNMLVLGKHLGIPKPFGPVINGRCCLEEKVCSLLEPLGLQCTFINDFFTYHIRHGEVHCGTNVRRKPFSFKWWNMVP

| Structure (SMILES) | pIC50 |
| --- | --- |
| COc1cc(C(=O)N2CCC[C@@H](N)C2)cc2nc(-c3cc4ccc5nc4n3C[C@H]3C[C@H]3CC[C@H]3C[C@@H]3C(=O)N[C@@H]5C)n(C)c12 (single isomer, unassigned) [Example 116, (3˜{S},5˜{R},8˜{S},10˜{S},13˜{R})-19-[5-[(3˜{R})-3-aminopiperidine-1-carbonyl]-7-methoxy-1-methyl-benzimidazol-2-yl]-13-methyl-1,12,21-triazapentacyclo[12.5.2.0^{3,5}.0^{8,10}.0^{17,20}]henicosa-14(21),15,17(20),18-tetraen-11-one] | 6.59 |
| C[C@H]1NC(=O)[C@H]2[C@@H](CCCCCn3c(-c4nc5cc(C(=O)N[C@H]6CNCC[C@@H]6F)c(F)cc5n4C)cc4ccc1nc43)C2(F)F (single isomer, unassigned) [Example 381, 2-[(2˜{R},5˜{R},7˜{R})-6,6-difluoro-2-methyl-4-oxo-3,13,19-triazatetracyclo[11.5.2.0^{5,7}.0^{16,20}]icosa-1(19),14,16(20),17-tetraen-14-yl]-6-fluoro-˜{N}-[(3˜{S},4˜{S})-4-fluoro-3-piperidyl]-1-methyl-benzimidazole-5-carboxamide] | 7.54 |
| COc1cc(C(=O)N2CC[C@@H](F)[C@@H](N)C2)cc2nc(-c3cc4ccc5nc4n3CCCCCCC(C)(C)C(=O)N[C@@H]5C)n(C)c12 [Example 276, (11~{R})-17-[5-[(3~{S},4~{R})-3-amino-4-fluoro-piperidine-1-carbonyl]-7-methoxy-1-methyl-benzimidazol-2-yl]-8,8,11-trimethyl-1,10,19-triazatricyclo[10.5.2.0^{15,18}]nonadeca-12(19),13,15(18),16-tetraen-9-one] | 6.46 |
| COc1cc(C(=O)N2[C@H]3CC[C@@H]2[C@H](N)C3)cc2nc(-c3cc4ccc5nc4n3CCCCCCCCC(=O)N[C@@H]5C)c(C)n12 [Example 318, (12~{R})-18-[7-[(1~{R},2~{R},4~{S})-2-amino-7-azabicyclo[2.2.1]heptane-7-carbonyl]-5-methoxy-3-methyl-imidazo[1,2-a]pyridin-2-yl]-12-methyl-1,11,20-triazatricyclo[11.5.2.0^{16,19}]icosa-13(20),14,16(19),17-tetraen-10-one] | 7.74 |
| C[C@H]1NC(=O)c2ccccc2CC[C@H]2C[C@@H]2Cn2c(-c3nc4cc(C(=O)N[C@H]5CNCC[C@@H]5F)c(F)cc4n3C)cc3ccc1nc32 [Example 351, 6-fluoro-~{N}-[(3~{S},4~{S})-4-fluoro-3-piperidyl]-1-methyl-2-[(3~{S},5~{S),16~{R})-16-methyl-14-oxo-1,15,24-triazapentacyclo[15.5.2.0^{3,5}.0^{8,13}.0^ {20,23}]tetracosa-8,10,12,17(24),18,20(23),21-heptaen-22-yl]benzimidazole-5-carboxamide] | 7.01 |
| COc1cc(C(=O)N2[C@H]3CC[C@@H]2[C@H](N)[C@H](O)C3)cc2nc(-c3cc4ccc5nc4n3CCCCCCC3(CC3)C(=O)N[C@@H]5C)n(C)c12 [Example 207, (11~{R})-17-[5-[(1~{R},2~{S},3~{R},5~{S})-2-amino-3-hydroxy-8-azabicyclo[3.2.1]octane-8-carbonyl]-7-methoxy-1-methyl-benzimidazol-2-yl]-11-methyl-spiro[1,10,19-triazatricyclo[10.5.2.0^{15,18}]nonadeca-12(19),13,15(18),16-tetraene-8,1′-cyclopropane]-9-one] | 6.73 |
| COc1cc(C(=O)N2CCC[C@@H](N)[C@H]2C)cc2nc(-c3cc4ccc5nc4n3CCCCCCC(C)(C)C(=O)N[C@@H]5C)n(C)c12 [Example 15, (11~{R})-17-[5-[(2~{R},3~{R})-3-amino-2-methyl-piperidine-1-carbonyl]-7-methoxy-1-methyl-benzimidazol-2-yl]-8,8,11-trimethyl-1,10,19-triazatricyclo[10.5.2.0^{15,18}]nonadeca-12(19),13,15(18),16-tetraen-9-one] | 7.22 |
| COc1cc(C(=O)N2CCC[C@@H](N)C2)cc2nc(-c3cc4ccc5nc4n3C[C@@H]3C[C@H]3C(OC)CCCC(=O)N[C@@H]5C)n(C)c12 (stereo partly drawn) [Example 264, (3~{R},5~{R},12~{R})-18-[5-[(3~{R})-3-aminopiperidine-1-carbonyl]-7-methoxy-1-methyl-benzimidazol-2-yl]-6-methoxy-12-methyl-1,11,20-triazatetracyclo[11.5.2.0^{3,5}.0^{16,19}] icosa-13(20),14,16(19),17-tetraen-10-one] | 7.04 |
| COc1cc(C(=O)N2[C@H]3CC[C@@H]2[C@H](N)C3)cc2nc(-c3cc4ccc5nc4n3CCCCCCC(=O)Nc3cnccc3-5)n(C)c12 [Example 95, 17-[5-[(1~{R},2~{R},4~{S})-2-amino-7-azabicyclo[2.2.1]heptane-7-carbonyl]-7-methoxy-1-methyl-benzimidazol-2-yl]-5,8,16,22-tetrazatetracyclo[14.5.2.0^{2,7}.0^{19,23}] tricosa-1(22),2,4,6,17,19(23),20-heptaen-9-one] | 7.07 |
| COc1cc(C(=O)N2[C@H]3CC[C@@H]2[C@H](N)C3)cc2nc(-c3cc4ccc5nc4n3C[C@H]3C[C@H]3CC[C@@H]3C[C@H]3C(=O)N[C@@H]5C)n(C)c12 [Example 142, (3~{S),5~{R},8~{R},10~{R},13~{R})-19-[5-[(1~{R},2~{R},4~{S})-2-amino-7-azabicyclo[2.2.1]heptane-7-carbonyl]-7-methoxy-1-methyl-benzimidazol-2-yl]-13-methyl-1,12,21-triazapentacyclo[12.5.2.0^{3,5}.0^{8,10}.0^ {17,20}]henicosa-14(21),15,17(20),18-tetraen-11-one] | 7.55 |

Second part, the compound after the results:

| pIC50 | Structure (SMILES) |
| --- | --- |
| 7.80 | COc1cc(C(=O)N2C[C@H](N)[C@@H]3CC[C@H]2C3)cc2nc(-c3cc4ccc5nc4n3CCCCCc3nccc(Cl)c3C(=O)N[C@@H]5C)n(C)c12 [Example 845, (2~{R})-17-[5-[(1~{S},4~{R}, 5~{R})-4-amino-2-azabicyclo [3.2.1]octane-2-carbonyl]-7-methoxy-1-methyl-benzimidazol-2-yl]-6-chloro-2-methyl-3,9,16,22-tetrazatetracyclo[14.5.2.0^ {5,10}.0^{19,23}]tricosa-1(22),5(10),6,8,17,19(23),20-heptaen-4-one] |
| 7.26 | COc1cc(C(=O)N2C[C@H](N)[C@@H]3CC[C@H]2C3)cc2nc(-c3cc4ccc5nc4n3CCCCCc3c(F)ccc(F)c3C(=O)N[C@@H]5C)n(C)c12 [Example 903, (2~{R})-17-[5-[(1~{S},4~{R}, 5~{R})-4-amino-2-azabicyclo [3.2.1]octane-2-carbonyl]-7-methoxy-1-methyl-benzimidazol-2-yl]-6,9-difluoro-2-methyl-3,16,22-triazatetracyclo [14.5.2.0^{5,10}.0^{19,23}] tricosa-1(22),5(10),6,8,17, 19(23),20-heptaen-4-one] |
| 7.15 | COc1cc(C(=O)N[C@H]2CNCC[C@@H]2F)cc2nc(-c3cc4ccc5nc4n3CCCOC[C@@H]3C[C@H]3C(=O)N[C@@H]5C)n(C)c12 [Example 616, ~{N}-[(3~{S},4~{S})-4-fluoro-3-piperidyl]-7-methoxy-1-methyl-2-[(2~{R},5~{R},7~{R})-2-methyl-4-oxo-9-oxa-3,13,19-triazatetracyclo[11.5.2.0^ {5,7}.0^{16,20}]icosa-1(19),14,16(20), 17-tetraen-14-yl] benzimidazole-5-carboxamide] |
| 7.03 | COCCn1c(-c2cc3ccc4nc3n2CCCCC[C@@H]2C[C@H]2C(=O)N[C@@H]4C)nc2cc(C(=O)N3CC[C@@H](OC)[C@@H](N)C3)cc(F)c21 [Example 436, (2~{R},5~{R},7~{R})-14-[5-[(3~{S},4~{R})-3-amino-4-methoxy-piperidine-1-carbonyl]-7-fluoro-1-(2-methoxyethyl)benzimidazol-2-yl]-2-methyl-3,13,19-triazatetracyclo[11.5.2.0^{5,7}.0^{16,20}] icosa-1(19),14,16(20),17-tetraen-4-one] |
| 7.34 | COCCn1c(-c2cc3ccc4nc3n2CCCCC[C@@H]2C[C@H]2C(=O)N[C@@H]4C)nc2cc(C(=O)N3CCC[C@@H](N)C3)cc(OC)c21 [Example 433, (2~{R},5~{R},7~{R})-14-[5-[(3~{R})-3-aminopiperidine-1-carbonyl]-7-methoxy-1-(2-methoxyethyl)benzimidazol-2-yl]-2-methyl-3,13,19-triazatetracyclo[11.5.2.0^{5,7}.0^{16,20}] icosa-1(19),14,16(20),17-tetraen-4-one] |
| 7.34 | COc1cc(C(=O)N2C[C@H](N)[C@@H]3CC[C@H]2C3)cc2nc(-c3cc4ccc5nc4n3CC(F)(F)CCC[C@@H]3C[C@@]3(C)C(=O)N[C@@H]5C)n(C3CC3)c12 [Example 924, (2~{R},5~{R},7~{R})-14-[5-[(1~{S),4~{R},5~{R})-4-amino-2-azabicyclo[3.2.1]octane-2-carbonyl]-1-cyclopropyl-7-methoxy-benzimidazol-2-yl]-11,11-difluoro-2,5-dimethyl-3,13,19-triazatetracyclo [11.5.2.0^{5,7}.0^{16,20}] icosa-1(19),14,16(20), 17-tetraen-4-one] |
| 7.82 | CO[C@@H]1CCN(C(=O)c2cc(F)c3c(c2)nc(-c2cc4ccc5nc4n2CCCCCc2nc4ccccc4cc2C(=O)N[C@@H]5C)n3C2CC2)C[C@@H]1N [Example 829, (2~{R})-21-[5-[(3~{S},4~ {R})-3-amino-4-methoxy-piperidine-1-carbonyl]-1-cyclopropyl-7-fluoro-benzimidazol-2-yl]-2-methyl-3,13,20,26-tetrazapentacyclo [18.5.2.0^{5,14}.0^{7,1 2}.0^{23,27}]heptacosa-1(26),5(14),6,8,10,12,21,23(27), 24-nonaen-4-one] |
| 7.05 | C[C@H]1NC(=O)c2cccnc2CCCCCn2c(-c3nc4cc(C(=O)N[C@H]5CNCC[C@@H]5F)c(F)cc4n3C)cc3ccc1nc32 [Example 401, 6-fluoro-~{N}-[(3~{S},4~{S})-4-fluoro-3-piperidyl]-1-methyl-2-[(2~{R})-2-methyl-4-oxo-3,9,16,22-tetrazatetracyclo[14.5.2.0^{5,10).0^{19,23}]tricosa-1(22),5(10),6,8,17,19(23),20-heptaen-17-yl]benzimidazole-5-carboxamide] |
